The target of one experiment is T1, HIV protease (Human immunodeficiency virus type 1 group M subtype B, UniProt P04585).
T1 construct: HIV protease is diluted in the assay buffer to a final enzyme concentration of 12.3 nanomolar, based on a molecular weight of 10,780
In words: HIV protease enzyme assay (fluorogenic substrate 2-aminobenzoyl-Ile-Nle-Phe(p-NO2)-Gln-ArgNH2). It counts as biochemical. The settings on record: substrate 80 µM, enzyme 12.3 nanomolar, pH 6.4, ambient temperature. From the text:
The compounds of the present invention are effective HIV protease inhibitors. Utilizing an enzyme assay as described below, the compounds set forth in the examples herein disclosed inhibited the HIV enzyme. The preferred compounds of the present invention and their calculated IC50 (inhibiting concentration 50%, i.e., the concentration at which the inhibitor compound reduces enzyme activity by 50%) values are shown in Table 18. The enzyme method is described below. The substrate is 2-aminobenzoyl-Ile-Nle-Phe(p-NO2)-Gln-ArgNH2. The positive control is MVT-101 (Miller, M. et al, Science, 246, 1149 (1989)] The assay conditions are as follows: Assay buffer: • 20 mM sodium phosphate, pH 6.4 • 20% glycerol • 1 mM EDTA • 1 mM DTT • 0.1% CHAPS
The above described substrate is dissolved in DMSO, then diluted 10 fold in assay buffer. Final substrate concentration in the assay is 80 µM.
HIV protease is diluted in the assay buffer to a final enzyme concentration of 12.3 nanomolar, based on a molecular weight of 10,780.
The final concentration of DMSO is 14% and the final concentration of glycerol is 18%. […] The increase in fluorescence is monitored at 4 time points (0, 8, 16 and 24 minutes) at ambient temperature. […]

For the next experiment, the system named is HIV-1. Kind of experiment: CEM cell assay: HIV inhibition in acutely infected cells, tetrazolium (MTT) based colorimetric assay. The settings on record: Table 19; test concentration not given; CEM cells infected with HIV-1, 7 days. On the procedure: The effectiveness of the compounds listed in Table 19 were determined in the above-described enzyme assay and in a CEM cell assay.
Methods 20, 309-321 (1988).

Usually IC50 stands for the concentration that gives 50% inhibition. High values mean weaker potency, low ones greater potency. `CCCCC(=O)N(CC1CCCCC1)C[C@@H](O)[C@H](Cc1ccccc1)NC(=O)[C@H](CC(N)=O)NC(=O)OCc1ccccc1` (relative stereo) [Compound 2, Butanediamide, N^1-[3-[[butylcarbonyl](cyclohexylmethyl)amino]-2-hydroxy-1-(phenylmethyl)propyl]-2-[(phenylmethyloxy)carbonyl)amino]-, [1S-[1R*(2R*),2S*]]] came in with an IC50 against HIV protease of 696 nM.
The term Inhibition denotes the change of the read-out against control, counted positive when it falls. Lower therefore signals little suppression. Compound `CC(C)CCN(C[C@@H](O)[C@H](Cc1ccccc1)NC(=O)[C@H](CC(N)=O)NC(=O)c1ccc2ccccc2n1)C(=O)CC(C)(C)C` (relative stereo) [Compound 1, Butanediamide, N^1-[3-[[[(2,2-dimethyl)propyl]carbonyl](3-methylbutyl)amino]-2-hydroxy-1-(phenylmethyl)propyl]-2-[(2-quinolinylcarbonyl)amino]-, [1S-[1R*(2R*),2S*]]] displayed an Inhibition in the experiment on HIV-1 of 100%. Further, 21 nM corresponded to half-maximal inhibition against HIV protease (IC50).

For the origin of these results see patent publication EP0731088B1, “Retroviral protease inhibitors” (MONSANTO COMPANY, priority 1990, dated 1992).
